Test results taken from US5094723A, “Separation of m-xylene from p-xylene or o-xylene by extractive distillation with alcohols” (priority 1991, dated 1992).

Assays:
Assay type in all cases: physicochemical
[1] = Relative volatility, separation of m-xylene from o-xylene, vapor-liquid equilibrium still; conditions: for effectiveness in separation of m-xylene from o-xylene: in words
Description: The data in Table 2 was obtained in a vapor-liquid equilibrium still.
Ten grams of m-xylene, 30 grams of o-xylene and 20 grams of cyclododecanol were charged to a vapor-liquid equilibrium still and refluxed for three hours.
Ten grams of m-xylene, 30 grams of o-xylene, 20 grams of cyclododecanol and ten grams of diisobutyl carbinol were charged to the vapor-liquid equilibrium still and refluxed for 14 hours.

[2] = Relative volatility, separation of p-xylene from m-xylene, vapor-liquid equilibrium still; conditions: for effectiveness in bringing m-xylene out as the overhead from p-xylene: alcohols; for Relative Volatility: vapor-liquid equilibrium still
From the text: The data in Table 5 was obtained in a vapor-liquid equilibrium still.
Twenty grams of m-xylene, 60 grams of p-xylene, 30 grams of cyclododecanol and 15 grams of benzyl alcohol were charged to the vapor-liquid equilibrium still and refluxed for five hours.
Twenty grams of m-xylene, 60 grams of p-xylene, 30 grams of cyclododecanol and 15 grams of diisobutyl carbinol were charged to the vapor-liquid equilibrium still and refluxed for four hours.

[3] = Extractive distillation run in glass perforated plate rectification column, m-xylene from o-xylene; conditions: for Relative Volatility: m-xylene from o-xylene, 7.3 theoretical plates, Fenske equation
Description: It yielded a relative volatility of 1.31 after one hour and 1.37 after two hours of continuous operation.
225 grams of m-xylene and 75 grams of o-xylene were placed in the stillpot of a glass perforated plate rectification column containing 7.3 theoretical plates, and heated. When refluxing began, an extractive agent comprising cyclododecanol was pumped into the column at a rate of 15 ml/min. The temperature of the extractive agent as it entered the column was 95° C. After establishing the feed rate of the extractive agent, the heat input to the column was adjusted to give a total reflux rate of 40 ml/min. After one hour of operation, overhead and bottoms samples of approximately two ml. were collected and analysed by gas chromatography. The overhead analysis was 95.5% m-xylene, 4.5% o-xylene and the bottoms analysis was 75% m-xylene, 25% o-xylene. Using these compositions in the Fenske equation, with the number of theoretical plates in the column being 7.3, gave an average relative volatility of 1.31 for each theoretical plate. After a total of two hours of continuous operation, samples of overhead and bottoms were again taken and analysed. The overhead analysis was 96.5% m-xylene, 3.5% o-xylene; the bottoms analysis was 73.6% m-xylene, 26.4% o-xylene which is a relative volatility of 1.37.

[4] = m-xylene to o-xylene, effective agents (alone or mixed as labelled), vapor-liquid equilibrium still
[5] = * brings the m-xylene out as overhead (m-xylene to p-xylene)
[6] = p-xylene from m-xylene, in words
[7] = m-xylene from o-xylene, ineffective agents when mixed with cyclododecanol

SMILES: CCCCCCCCCCO [1-Decanol]
- effectiveness in separation of m-xylene from o-xylene ([1]; alcohols): effective
- effectiveness in bringing m-xylene out as the overhead from p-xylene ([2]; in words): effective in bringing m-xylene out as the overhead

SMILES: CCCCCCCCCCCCO [1-Dodecanol]
- effectiveness in separation of m-xylene from o-xylene ([1]; alcohols): effective
- Relative Volatility [1, 4]: 1.31
- Relative Volatility [2, 5]: 1.11
- effectiveness in bringing m-xylene out as the overhead from p-xylene ([2]; in words): effective in bringing m-xylene out as the overhead

SMILES: CCCCCCCCCO [1-Nonanol]
- effectiveness in separation of m-xylene from o-xylene ([1]; alcohols): effective
- Relative Volatility [2, 5]: 1.14
- effectiveness in bringing m-xylene out as the overhead from p-xylene ([2]; in words): effective in bringing m-xylene out as the overhead

SMILES: CCCCCCCCO [1-Octanol]
- effectiveness in separation of m-xylene from o-xylene ([1]; alcohols): effective
- Relative Volatility [1, 4]: 1.38
- enhancement of relative volatility when mixed with cyclododecanol [2, 6]: enhance the relative volatility

SMILES: CCCCC(CC)COC(C)=O (stereo not drawn) [2-Ethyl hexyl acetate]
- Relative Volatility [1, 7]: 1.22

SMILES: CCCCC(CC)CO (stereo not drawn) [2-Ethyl-1-hexanol]
- Relative Volatility [1, 7]: 1.29

SMILES: Cc1ccccc1[N+](=O)[O-] [2-Nitrotouene]
- Relative Volatility [1, 7]: 1.25

SMILES: CCCCCCC(C)O (stereo not drawn) [2-Octanol]
- effectiveness in separation of m-xylene from o-xylene ([1]; alcohols): effective
- Relative Volatility [1, 4]: 1.30

SMILES: OCc1ccccc1 [Benzyl alcohol]
- Relative Volatility [2, 5]: 1.19
- effectiveness in bringing m-xylene out as the overhead from p-xylene ([2]; in words): effective in bringing m-xylene out as the overhead
- enhancement of relative volatility when mixed with cyclododecanol [2, 6]: enhance the relative volatility

SMILES: O=C(OCc1ccccc1)c1ccccc1 [Benzyl benzoate]
- Relative Volatility [1, 7]: 1.0

SMILES: CCCCOC(=O)CCC [Butyl butyrate]
- Relative Volatility [1]: 1.26

SMILES: OC1CCCCCCCCCCC1 [Cyclododecanol]
- effectiveness in separation of m-xylene from o-xylene ([1]; alcohols): effective
- Relative Volatility [1, 4]: 1.37
- liquid composition, m-xylene ([1]; vapor-liquid equilibrium still): 23.6%
- liquid composition, o-xylene ([1]; vapor-liquid equilibrium still): 76.4%
- vapor composition, m-xylene ([1]; vapor-liquid equilibrium still): 29.8%
- vapor composition, o-xylene ([1]; vapor-liquid equilibrium still): 70.2%
- xylene brought out as overhead product [2, 6]: brings out the p-xylene as overhead product
- Relative Volatility ([2]; p-xylene to m-xylene (no asterisk)): 1.11
- Weight % m-Xylene ([3]; bottoms, 1 hour): 75%
- Weight % o-Xylene ([3]; bottoms, 1 hour): 25%
- Weight % m-Xylene ([3]; bottoms, 2 hours): 73.6%
- Weight % o-Xylene ([3]; bottoms, 2 hours): 26.4%
- Relative Volatility ([3]; 1 hour): 1.31
- Relative Volatility ([3]; 2 hours): 1.37
- Weight % m-Xylene ([3]; overhead, 1 hour): 95.5%
- Weight % o-Xylene ([3]; overhead, 1 hour): 4.5%
- Weight % m-Xylene ([3]; overhead, 2 hours): 96.5%
- Weight % o-Xylene ([3]; overhead, 2 hours): 3.5%

SMILES: CCOC(=O)CC(=O)OCC [Diethyl malonate]
- Relative Volatility [1, 7]: 1.23

SMILES: CCCCCCOCCOCCO [Diethylene glycol hexyl ether]
- Relative Volatility [1, 7]: 0.7

SMILES: CC(C)CC(O)CC(C)C [Diisobutyl carbinol]
- effectiveness in separation of m-xylene from o-xylene ([1]; alcohols): effective
- Relative Volatility [1, 4]: 1.27
- Relative Volatility [2, 5]: 1.23
- effectiveness in bringing m-xylene out as the overhead from p-xylene ([2]; in words): effective in bringing m-xylene out as the overhead
- enhancement of relative volatility when mixed with cyclododecanol [2, 6]: enhance the relative volatility

SMILES: CCCCOCCOC(C)=O [Ethylene glycol butyl ether acetate]
- Relative Volatility [1, 7]: 1.1
- enhancement of relative volatility when mixed with cyclododecanol [2, 6]: enhance the relative volatility

SMILES: CC(C)CCCCCCCO [Isodecanol (ASHLAND), Isodecanol]
- Relative Volatility [1, 4]: 1.27

SMILES: CC(C)CCCCCCCO [Isodecanol (EXXON), Isodecanol]
- Relative Volatility [1, 4]: 1.18

SMILES: CC(C)CCCCCCCO [Isodecanol]
- effectiveness in separation of m-xylene from o-xylene ([1]; alcohols): effective
- effectiveness in bringing m-xylene out as the overhead from p-xylene ([2]; in words): effective in bringing m-xylene out as the overhead

SMILES: CC(C)CCCCCCO [Isononyl alcohol (EXXON), Isononyl alcohol]
- effectiveness in separation of m-xylene from o-xylene ([1]; alcohols): effective
- Relative Volatility [1, 4]: 1.22

SMILES: CC(C)CCCCCO [Isooctanol (U.C.), Isooctanol]
- Relative Volatility [1, 4]: 1.27

SMILES: COC(=O)c1ccccc1 [Methyl benzoate]
- Relative Volatility [1, 7]: 1.0

SMILES: OCCc1ccccc1 [Phenethyl alcohol]
- Relative Volatility [1, 7]: 1.29
- enhancement of relative volatility when mixed with cyclododecanol [2, 6]: enhance the relative volatility

SMILES: CCC(=O)c1ccccc1 [Propiophenone]
- Relative Volatility [1, 7]: 0.8
- enhancement of relative volatility when mixed with cyclododecanol [2, 6]: enhance the relative volatility

SMILES: CC1COC(=O)O1 (stereo not drawn) [Propylene carbonate]
- Relative Volatility [1, 7]: 1.07

SMILES: CCCCCCCCCCCO [Undecyl alcohol]
- effectiveness in separation of m-xylene from o-xylene ([1]; alcohols): effective
- Relative Volatility [1, 4]: 1.40
- Relative Volatility [2, 5]: 1.14
- effectiveness in bringing m-xylene out as the overhead from p-xylene ([2]; in words): effective in bringing m-xylene out as the overhead

SMILES: CC(=O)c1ccccc1 [acetophenone]
- effectiveness in separation of m-xylene from o-xylene ([1]; mixed with cyclododecanol): effective relative volatilities
- effectiveness in separation of m-xylene from o-xylene ([1]; used alone): relatively ineffective

SMILES: CCCCOCCOCCO [diethylene glycol butyl ether]
- effectiveness in separation of m-xylene from o-xylene ([1]; mixed with cyclododecanol): effective relative volatilities
- effectiveness in separation of m-xylene from o-xylene ([1]; used alone): relatively ineffective
- enhancement of relative volatility when mixed with cyclododecanol [2, 6]: enhance the relative volatility

SMILES: CCOCCOCCO [diethylene glycol ethyl ether]
- effectiveness in separation of m-xylene from o-xylene ([1]; mixed with cyclododecanol): effective relative volatilities
- effectiveness in separation of m-xylene from o-xylene ([1]; used alone): relatively ineffective

SMILES: CN(C)C=O [dimethylformamide]
- enhancement of relative volatility when mixed with cyclododecanol [2, 6]: enhance the relative volatility

SMILES: C[S+](C)[O-] [dimethylsulfoxide]
- effectiveness in separation of m-xylene from o-xylene ([1]; mixed with cyclododecanol): effective relative volatilities
- effectiveness in separation of m-xylene from o-xylene ([1]; used alone): relatively ineffective
- enhancement of relative volatility when mixed with cyclododecanol [2, 6]: enhance the relative volatility

SMILES: CCOC(=O)c1ccccc1O [ethyl salicylate]
- effectiveness in separation of m-xylene from o-xylene ([1]; mixed with cyclododecanol): effective relative volatilities
- effectiveness in separation of m-xylene from o-xylene ([1]; used alone): relatively ineffective

SMILES: CC(C)CCCCCO [isooctanol]
- effectiveness in separation of m-xylene from o-xylene ([1]; alcohols): effective

SMILES: COC(=O)c1ccccc1O [methyl salicylate]
- effectiveness in separation of m-xylene from o-xylene ([1]; mixed with cyclododecanol): effective relative volatilities
- effectiveness in separation of m-xylene from o-xylene ([1]; used alone): relatively ineffective

SMILES: CC(=O)Oc1ccccc1 [phenyl acetate]
- effectiveness in separation of m-xylene from o-xylene ([1]; mixed with cyclododecanol): effective relative volatilities
- effectiveness in separation of m-xylene from o-xylene ([1]; used alone): relatively ineffective

SMILES: O=S1(=O)CCCC1 [sulfolane]
- effectiveness in separation of m-xylene from o-xylene ([1]; mixed with cyclododecanol): effective relative volatilities
- effectiveness in separation of m-xylene from o-xylene ([1]; used alone): relatively ineffective

SMILES: OCC1CCCO1 (stereo not drawn) [tetrahydrofurfuryl alcohol]
- enhancement of relative volatility when mixed with cyclododecanol [2, 6]: enhance the relative volatility
